Assays:
[1] = tested on: rabbit serum obtained by immunizing a rabbit with the SARS-CoV strain Frankfurt 1; format: binding; set-up: Binding of a rabbit serum to linear peptides / Binding of a rabbit serum to looped peptides / Rabbit serum linear peptides / Rabbit serum looped peptides / Binding of a rabbit serum to linear peptides of protein N of SARS-CoV Urbani (Rabbit serum linear peptides) / Binding of a rabbit serum to looped/cyclic peptides of protein N of SARS-CoV Urbani (Rabbit serum looped peptides): unit not given here
[2] = tested on: control sera (pooled serum of ten healthy LUMC hospital workers; commercial negative donor pooled serum from the Dutch bloodbank); format: binding, human; set-up: Binding of Control serum LUMC to linear peptides / Binding of Control serum Blood-bank to linear peptides / Binding of Control serum LUMC to looped peptides / Binding of Control Serum Blood-Bank to Looped peptides / Binding of Control serum LUMC to linear peptides of the protein M of SARS-CoV Urbani / Binding of Control serum Blood-bank to linear peptides of the protein M of SARS-CoV Urbani / Binding of Control serum LUMC to looped peptides of the protein M of SARS-CoV Urbani / Binding of Control Serum Blood-Bank to Looped peptides of the protein M of SARS-CoV Urbani: unit not given here

## KEDYQIGGYSEDRHS
[1]
  Binding of a rabbit serum to linear peptides: 0.1
  Binding of a rabbit serum to looped peptides: 0.5
[2]
  Binding of Control Serum Blood-Bank to Looped peptides: 0.3
  Binding of Control serum Blood-bank to linear peptides: 0.5
  Binding of Control serum LUMC to linear peptides: 0.5
  Binding of Control serum LUMC to looped peptides: 0.4

## VTINCQDPAGGALIA
[1]
  Rabbit serum linear peptides: 0.5
  Rabbit serum looped peptides: 0.0
[2]
  Binding of Control Serum Blood-Bank to Looped peptides: 0.5
  Binding of Control serum Blood-bank to linear peptides: 0.8
  Binding of Control serum LUMC to linear peptides: 0.6
  Binding of Control serum LUMC to looped peptides: 0.5

## GISTPKLKEDYQIGG
[1]
  Binding of a rabbit serum to linear peptides: 0.1
  Binding of a rabbit serum to looped peptides: 0.3
[2]
  Binding of Control Serum Blood-Bank to Looped peptides: 0.4
  Binding of Control serum Blood-bank to linear peptides: 0.5
  Binding of Control serum LUMC to linear peptides: 0.4
  Binding of Control serum LUMC to looped peptides: 0.4

## QPVKIDNASPASTVH
[1]
  Binding of a rabbit serum to linear peptides: 0.1
  Binding of a rabbit serum to looped peptides: 0.4
[2]
  Binding of Control Serum Blood-Bank to Looped peptides: 0.6
  Binding of Control serum Blood-bank to linear peptides: 0.6
  Binding of Control serum LUMC to linear peptides: 0.6
  Binding of Control serum LUMC to looped peptides: 0.6

## MRTFRIAIWNLDVII
[1]
  Rabbit serum linear peptides: 0.3
  Rabbit serum looped peptides: 0.4
[2]
  Binding of Control Serum Blood-Bank to Looped peptides of the protein X3 of SARS-CoV Urbani: 0.8
  Binding of Control serum Blood-bank to linear peptides of the protein X3 of SARS-CoV Urbani: 0.7
  Binding of Control serum LUMC to linear peptides of the protein X3 of SARS-CoV Urbani: 0.6
  Binding of Control serum LUMC to looped peptides of the protein X3 of SARS-CoV Urbani: 0.8

## LNTDHAGSNDNIALL
[1]
  Rabbit serum linear peptides: 0.0
  Rabbit serum looped peptides: 0.3
[2]
  Binding of Control Serum Blood-Bank to Looped peptides of the protein M of SARS-CoV Urbani: 0.7
  Binding of Control serum Blood-bank to linear peptides of the protein M of SARS-CoV Urbani: 0.6
  Binding of Control serum LUMC to linear peptides of the protein M of SARS-CoV Urbani: 0.7
  Binding of Control serum LUMC to looped peptides of the protein M of SARS-CoV Urbani: 0.9

## RMAGHPLGRCDIKDL
[1]
  Rabbit serum linear peptides: 0.1
  Rabbit serum looped peptides: 0.6
[2]
  Binding of Control Serum Blood-Bank to Looped peptides of the protein M of SARS-CoV Urbani: 0.9
  Binding of Control serum Blood-bank to linear peptides of the protein M of SARS-CoV Urbani: 0.7
  Binding of Control serum LUMC to linear peptides of the protein M of SARS-CoV Urbani: 0.7
  Binding of Control serum LUMC to looped peptides of the protein M of SARS-CoV Urbani: 0.8

## RTFRIAIWNLDVIIS
[1]
  Rabbit serum linear peptides: 0.3
  Rabbit serum looped peptides: 0.4
[2]
  Binding of Control Serum Blood-Bank to Looped peptides of the protein X3 of SARS-CoV Urbani: 0.9
  Binding of Control serum Blood-bank to linear peptides of the protein X3 of SARS-CoV Urbani: 0.7
  Binding of Control serum LUMC to linear peptides of the protein X3 of SARS-CoV Urbani: 0.6
  Binding of Control serum LUMC to looped peptides of the protein X3 of SARS-CoV Urbani: 0.8

## LADNKFALTCTSTHF
[1]
  Rabbit serum linear peptides: 0.5
  Rabbit serum looped peptides: 0.5
[2]
  Binding of Control Serum Blood-Bank to Looped peptides: 0.7
  Binding of Control serum Blood-bank to linear peptides: 0.7
  Binding of Control serum LUMC to linear peptides: 0.7
  Binding of Control serum LUMC to looped peptides: 0.7

## GGYSEDRHSGVKDYV
[1]
  Binding of a rabbit serum to linear peptides: 0.1
  Binding of a rabbit serum to looped peptides: 0.2
[2]
  Binding of Control Serum Blood-Bank to Looped peptides: 0.4
  Binding of Control serum Blood-bank to linear peptides: 0.6
  Binding of Control serum LUMC to linear peptides: 0.4
  Binding of Control serum LUMC to looped peptides: 0.5

## ELYHYQECVRGTTVL
[1]
  Rabbit serum linear peptides: 0.7
  Rabbit serum looped peptides: 0.7
[2]
  Binding of Control Serum Blood-Bank to Looped peptides: 0.7
  Binding of Control serum Blood-bank to linear peptides: 0.7
  Binding of Control serum LUMC to linear peptides: 0.6
  Binding of Control serum LUMC to looped peptides: 0.7

## LVKDPPNVQIHTIDG
[1]
  Binding of a rabbit serum to linear peptides: 0.1
  Binding of a rabbit serum to looped peptides: 0.5
[2]
  Binding of Control Serum Blood-Bank to Looped peptides: 0.6
  Binding of Control serum Blood-bank to linear peptides: 0.4
  Binding of Control serum LUMC to linear peptides: 0.4
  Binding of Control serum LUMC to looped peptides: 0.7

## LRMAGHPLGRCDIKD
[1]
  Rabbit serum linear peptides: 0.3
  Rabbit serum looped peptides: 0.1
[2]
  Binding of Control Serum Blood-Bank to Looped peptides of the protein M of SARS-CoV Urbani: 0.8
  Binding of Control serum Blood-bank to linear peptides of the protein M of SARS-CoV Urbani: 0.7
  Binding of Control serum LUMC to linear peptides of the protein M of SARS-CoV Urbani: 0.5
  Binding of Control serum LUMC to looped peptides of the protein M of SARS-CoV Urbani: 0.8

## IVNVSLVKPTVYVYS
[1]
  Binding of a rabbit serum to linear peptides: 0.5
  Binding of a rabbit serum to looped peptides: 0.5
[2]
  Binding of Control Serum Blood-Bank to Looped peptides: 0.9
  Binding of Control serum Blood-bank to linear peptides: 0.7
  Binding of Control serum LUMC to linear peptides: 0.4
  Binding of Control serum LUMC to looped peptides: 0.9

## YDANYFVCWHTHNYD
[1]
  Binding of a rabbit serum to linear peptides: 0.1
  Binding of a rabbit serum to looped peptides: 0.4
[2]
  Binding of Control Serum Blood-Bank to Looped peptides: 0.3
  Binding of Control serum Blood-bank to linear peptides: 0.7
  Binding of Control serum LUMC to linear peptides: 0.7
  Binding of Control serum LUMC to looped peptides: 0.4

## TMVQTCTPNVTINCQ
[1]
  Rabbit serum linear peptides: 0.5
  Rabbit serum looped peptides: 0.4
[2]
  Binding of Control Serum Blood-Bank to Looped peptides: 0.9
  Binding of Control serum Blood-bank to linear peptides: 0.7
  Binding of Control serum LUMC to linear peptides: 0.7
  Binding of Control serum LUMC to looped peptides: 0.7

## DANYFVCWHTHNYDY
[1]
  Binding of a rabbit serum to linear peptides: 0.1
  Binding of a rabbit serum to looped peptides: 0.5
[2]
  Binding of Control Serum Blood-Bank to Looped peptides: 0.5
  Binding of Control serum Blood-bank to linear peptides: 0.8
  Binding of Control serum LUMC to linear peptides: 0.8
  Binding of Control serum LUMC to looped peptides: 1.0

## WVTGGIAIAMACIVG
[1]
  Rabbit serum linear peptides: 0.4
  Rabbit serum looped peptides: 0.2
[2]
  Binding of Control Serum Blood-Bank to Looped peptides of the protein M of SARS-CoV Urbani: 0.8
  Binding of Control serum Blood-bank to linear peptides of the protein M of SARS-CoV Urbani: 0.8
  Binding of Control serum LUMC to linear peptides of the protein M of SARS-CoV Urbani: 0.4
  Binding of Control serum LUMC to looped peptides of the protein M of SARS-CoV Urbani: 0.9

## DNGTITVEELKQLLE
[1]
  Recognition of the peptide by the rabbit serum: recognized
[2]
  Binding of Control Serum Blood-Bank to Looped peptides of the protein M of SARS-CoV Urbani: 0.4
  Binding of Control serum Blood-bank to linear peptides of the protein M of SARS-CoV Urbani: 0.7
  Binding of Control serum LUMC to linear peptides of the protein M of SARS-CoV Urbani: 0.8
  Binding of Control serum LUMC to looped peptides of the protein M of SARS-CoV Urbani: 0.7

## IGNYKLNTDHAGSND
[1]
  Rabbit serum linear peptides: 0.5
  Rabbit serum looped peptides: 0.0
[2]
  Binding of Control Serum Blood-Bank to Looped peptides of the protein M of SARS-CoV Urbani: 0.7
  Binding of Control serum Blood-bank to linear peptides of the protein M of SARS-CoV Urbani: 0.5
  Binding of Control serum LUMC to linear peptides of the protein M of SARS-CoV Urbani: 0.3
  Binding of Control serum LUMC to looped peptides of the protein M of SARS-CoV Urbani: 0.8

## VLKTMSLYMAISPKF
[1]
  Binding of a rabbit serum to linear peptides: 0.3
  Binding of a rabbit serum to looped peptides: 0.5
[2]
  Binding of Control Serum Blood-Bank to Looped peptides: 0.7
  Binding of Control serum Blood-bank to linear peptides: 0.9
  Binding of Control serum LUMC to linear peptides: 0.5
  Binding of Control serum LUMC to looped peptides: 0.6

## PAMDPIYDEPTTTTS
[1]
  Binding of a rabbit serum to linear peptides: 0.1
  Binding of a rabbit serum to looped peptides: 0.4
[2]
  Binding of Control Serum Blood-Bank to Looped peptides: 0.5
  Binding of Control serum Blood-bank to linear peptides: 0.4
  Binding of Control serum LUMC to linear peptides: 0.4
  Binding of Control serum LUMC to looped peptides: 0.4

## ECVRGTTVLLKEPCP
[1]
  Rabbit serum linear peptides: 0.6
  Rabbit serum looped peptides: 0.4
[2]
  Binding of Control Serum Blood-Bank to Looped peptides: 0.9
  Binding of Control serum Blood-bank to linear peptides: 0.9
  Binding of Control serum LUMC to linear peptides: 0.7
  Binding of Control serum LUMC to looped peptides: 0.8

## SITAQPVKIDNASPA
[1]
  Binding of a rabbit serum to linear peptides: 0.1
  Binding of a rabbit serum to looped peptides: 0.4
[2]
  Binding of Control Serum Blood-Bank to Looped peptides: 0.4
  Binding of Control serum Blood-bank to linear peptides: 0.6
  Binding of Control serum LUMC to linear peptides: 0.6
  Binding of Control serum LUMC to looped peptides: 0.4

## YYKLGASQRVGTDSG
[1]
  Rabbit serum linear peptides: 0.1
  Rabbit serum looped peptides: 0.0
[2]
  Binding of Control Serum Blood-Bank to Looped peptides of the protein M of SARS-CoV Urbani: 0.7
  Binding of Control serum Blood-bank to linear peptides of the protein M of SARS-CoV Urbani: 1.0
  Binding of Control serum LUMC to linear peptides of the protein M of SARS-CoV Urbani: 0.8
  Binding of Control serum LUMC to looped peptides of the protein M of SARS-CoV Urbani: 0.7

## PVKIDNASPASTVHA
[1]
  Binding of a rabbit serum to linear peptides: 0.1
  Binding of a rabbit serum to looped peptides: 0.4
[2]
  Binding of Control Serum Blood-Bank to Looped peptides: 0.7
  Binding of Control serum Blood-bank to linear peptides: 0.7
  Binding of Control serum LUMC to linear peptides: 0.5
  Binding of Control serum LUMC to looped peptides: 0.9

## FQHQNSKKTTKLVVI
[1]
  Recognition of the peptide by the rabbit serum: recognized
[2]
  Binding of Control Serum Blood-Bank to Looped peptides: 0.4
  Binding of Control serum Blood-bank to linear peptides: 0.5
  Binding of Control serum LUMC to linear peptides: 0.7
  Binding of Control serum LUMC to looped peptides: 0.5

## GIAIAMACIVGLMWL
[1]
  Rabbit serum linear peptides: 0.3
  Rabbit serum looped peptides: 0.1
[2]
  Binding of Control Serum Blood-Bank to Looped peptides of the protein M of SARS-CoV Urbani: 0.7
  Binding of Control serum Blood-bank to linear peptides of the protein M of SARS-CoV Urbani: 0.8
  Binding of Control serum LUMC to linear peptides of the protein M of SARS-CoV Urbani: 0.5
  Binding of Control serum LUMC to looped peptides of the protein M of SARS-CoV Urbani: 0.8

## MAGHPLGRCDIKDLP
[1]
  Rabbit serum linear peptides: 0.4
  Rabbit serum looped peptides: 0.3
[2]
  Binding of Control Serum Blood-Bank to Looped peptides of the protein M of SARS-CoV Urbani: 0.5
  Binding of Control serum Blood-bank to linear peptides of the protein M of SARS-CoV Urbani: 0.7
  Binding of Control serum LUMC to linear peptides of the protein M of SARS-CoV Urbani: 0.5
  Binding of Control serum LUMC to looped peptides of the protein M of SARS-CoV Urbani: 0.5

## DGISTPKLKEDYQIG
[1]
  Binding of a rabbit serum to linear peptides: 0.1
  Binding of a rabbit serum to looped peptides: 0.4
[2]
  Binding of Control Serum Blood-Bank to Looped peptides: 0.3
  Binding of Control serum Blood-bank to linear peptides: 0.5
  Binding of Control serum LUMC to linear peptides: 0.6
  Binding of Control serum LUMC to looped peptides: 0.3

Source: US20070128217A1 (priority 2003, published 2007)
